Data reported in patent US20230040182A1, “ARYL HETEROBICYCLIC COMPOUNDS AS Kv1.3 POTASSIUM SHAKER CHANNEL BLOCKERS” (priority 2019, published 2023).

Key:
hERG channel = molecular target: T1, hERG channel (Homo sapiens, UniProt Q12809); assay: hERG electrophysiology, automated whole-cell patch clamp (Patchliner); type: cell-based; details: CHO-K1 cells stably expressing hERG; whole-cell current, Hill fit
T1 construct: expressed in transfected cells
Method: Example 10. Evaluation of hERG Activities
This assay is used to evaluate the disclosed compounds' inhibition activities against the hERG channel.
CHO-K1 cells stably expressing hERG were grown in Ham's F-12 Medium with Glutamine containing 10% heat-inactivated FBS, 1% Penicillin/Streptomycin, Hygromycin (100 μg/ml) and G418 (100 μg/ml). Cells were grown in culture flasks at 37° C. in a 5% CO2-humidified incubator.
(§1) The cells were bathed in an extracellular solution containing 140 mM NaCl, 4 mM KCl, 2 mM CaCl2), 1 mM MgCl2, 5 mM Glucose, 10 mM HEPES; pH adjusted to 7.4 with NaOH; 295-305 mOsm. The internal solution contained 50 mM KCl, 10 mM NaCl, 60 mM KF, 20 mM EGTA, 10 mM HEPES; pH adjusted to 7.2 with KOH; 285 mOsm. All compounds were dissolved in DMSO at 30 mM. Compound stock solutions were freshly diluted with external solution to concentrations of 30 nM, 100 nM, 300 nM, 1 μM, 3 μM, 10 μM, 30 μM and 100 μM. The highest content of DMSO (0.3%) was present in 100 μM.
The voltage protocol (see Table B) was designed to simulate voltage changes during a cardiac action potential with a 300 ms depolarization to +20 mV (analogous to the plateau phase of the cardiac action potential), a repolarization for 300 ms to −50 mV (inducing a tail current) and a final step to the holding potential of −80 mV. The pulse frequency was 0.3 Hz. Control (compound-free) and compound pulse trains for each compound concentration applied contained 70 pulses.
(§2) Whole-cell current recordings and compound application were enabled by means of an automated patch clamp platform Patchliner (Nanion). EPC 10 patch clamp amplifier (HEKA) along with Patchmaster software (HEKA Elektronik Dr. Schulze GmbH) was used for data acquisition. Data were sampled at 10 kHz without filtering. Increasing compound concentrations were applied consecutively to the same cell without washouts in between.
(§3) AUC and PEAK values were obtained with Patchmaster (HEKA Elektronik Dr. Schulze GmbH). To determine IC50 the last single pulse in the pulse train corresponding to a given compound concentration was used. Obtained AUC and PEAK values in the presence of compound were normalized to control values in the absence of compound. Using Origin (OridinLab), IC50 was derived from data fit to Hill equation: Icompound/Icontrol=(100−A)/(1+([compound]/IC50)nH)+A, where IC50 is the concentration at which current inhibition is half-maximal, [compound] is the applied compound concentration, A is the fraction of current that is not blocked and nH is the Hill coefficient.

Kv1.3 potassium channel = molecular target: T2, Kv1.3 potassium channel (Homo sapiens, UniProt P22001); assay: Kv1.3 potassium channel blocker activity, automated whole-cell patch clamp (Patchliner); type: cell-based; details: CHO-K1 cells stably expressing Kv1.3; whole-cell current, Hill fit
T2 construct: expressed in transfected cells
T2 sequence (P22001 whole entry): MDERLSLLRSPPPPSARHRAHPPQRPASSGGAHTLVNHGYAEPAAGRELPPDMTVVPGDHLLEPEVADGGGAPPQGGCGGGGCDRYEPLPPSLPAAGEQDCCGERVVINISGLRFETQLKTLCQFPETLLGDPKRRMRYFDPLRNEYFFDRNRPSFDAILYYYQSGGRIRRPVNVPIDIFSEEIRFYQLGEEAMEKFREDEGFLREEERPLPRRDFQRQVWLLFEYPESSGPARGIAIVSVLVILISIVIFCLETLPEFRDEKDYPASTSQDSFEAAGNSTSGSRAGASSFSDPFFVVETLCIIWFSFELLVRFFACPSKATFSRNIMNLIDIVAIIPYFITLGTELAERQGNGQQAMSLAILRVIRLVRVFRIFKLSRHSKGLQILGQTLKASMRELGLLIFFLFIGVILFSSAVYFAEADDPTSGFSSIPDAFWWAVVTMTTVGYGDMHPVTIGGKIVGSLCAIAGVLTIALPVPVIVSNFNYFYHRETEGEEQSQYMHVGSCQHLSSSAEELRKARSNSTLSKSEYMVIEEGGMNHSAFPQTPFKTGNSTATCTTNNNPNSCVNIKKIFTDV
Method: Example 9. Evaluation of Kv1.3 Potassium Channel Blocker Activities
This assay is used to evaluate the disclosed compounds' activities as Kv1.3 potassium channel blockers.
CHO-K1 cells stably expressing Kv1.3 were grown in DMEM containing 10% heat-inactivated FBS, 1 mM Sodium Pyruvate, 2 mM L-Glutamine and G418 (500 μg/ml). Cells were grown in culture flasks at 37° C. in a […] incubator.
as §1, with “CaCl2,” for “CaCl2),”
The currents were evoked by applying 100 ms depolarizing pulses from −90 mV (holding potential) to +40 mV were applied with 0.1 Hz frequency. Control (compound-free) and compound pulse trains for each compound concentration applied contained 20 pulses. 10-second breaks were used between pulse trains (see Table A below).
as §2, with “(Nanion Technologies GmbH).” for “(Nanion).”, “(HEKA Elektronik Dr. Schulze GmbH)” for “(HEKA)”, “filtering. Passive leak currents were subtracted online using a P/4 procedure (HEKA Elektronik Dr. Schulze GmbH).” for “filtering.”, “between. Total compound incubation time before the next pulse train was not longer than 10 seconds. Peak current inhibition was observed during compound equilibration.” for “between.”
as §3, with “AUC and peak values were” for “AUC and PEAK values were”, “To determine IC50, the last” for “To determine IC50 the last”, “AUC and peak values in” for “AUC and PEAK values in”, “where IC50 value is the” for “where IC50 is the”

T1 sequence (Q12809 whole entry): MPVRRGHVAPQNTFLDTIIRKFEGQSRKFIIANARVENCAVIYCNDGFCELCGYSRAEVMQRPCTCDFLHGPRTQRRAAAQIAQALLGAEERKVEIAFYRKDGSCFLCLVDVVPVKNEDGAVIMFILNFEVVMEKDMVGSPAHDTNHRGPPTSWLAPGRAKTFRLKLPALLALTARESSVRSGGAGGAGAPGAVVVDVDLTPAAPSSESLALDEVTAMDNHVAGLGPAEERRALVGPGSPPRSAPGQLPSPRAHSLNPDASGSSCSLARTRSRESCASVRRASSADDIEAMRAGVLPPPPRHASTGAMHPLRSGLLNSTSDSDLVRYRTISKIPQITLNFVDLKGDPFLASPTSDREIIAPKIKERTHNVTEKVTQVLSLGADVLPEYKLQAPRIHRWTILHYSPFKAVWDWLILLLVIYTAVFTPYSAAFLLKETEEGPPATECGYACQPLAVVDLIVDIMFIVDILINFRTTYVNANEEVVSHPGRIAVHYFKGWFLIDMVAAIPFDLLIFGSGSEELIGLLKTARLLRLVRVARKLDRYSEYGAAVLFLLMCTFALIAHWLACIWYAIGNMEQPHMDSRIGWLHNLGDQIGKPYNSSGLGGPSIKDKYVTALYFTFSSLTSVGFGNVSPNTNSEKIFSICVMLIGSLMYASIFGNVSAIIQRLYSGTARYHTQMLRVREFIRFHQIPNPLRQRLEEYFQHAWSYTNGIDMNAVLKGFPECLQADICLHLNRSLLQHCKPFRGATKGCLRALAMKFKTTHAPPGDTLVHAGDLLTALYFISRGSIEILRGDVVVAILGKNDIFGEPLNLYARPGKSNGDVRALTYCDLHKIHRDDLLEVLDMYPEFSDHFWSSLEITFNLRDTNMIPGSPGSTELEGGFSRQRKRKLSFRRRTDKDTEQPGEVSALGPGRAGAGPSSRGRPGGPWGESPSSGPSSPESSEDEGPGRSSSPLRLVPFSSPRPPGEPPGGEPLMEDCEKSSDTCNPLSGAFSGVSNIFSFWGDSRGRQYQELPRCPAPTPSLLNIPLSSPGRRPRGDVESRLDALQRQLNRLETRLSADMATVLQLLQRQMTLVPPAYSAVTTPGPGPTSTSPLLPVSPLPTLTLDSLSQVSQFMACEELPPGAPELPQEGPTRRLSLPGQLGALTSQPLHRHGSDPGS

| Structure (SMILES) | IC50 (Kv1.3 potassium channel) [µM] | IC50 (hERG channel) [µM] |
| --- | --- | --- |
| O=C1[C@@H]2C[C@H](c3c(O)ccc(Cl)c3Cl)CCN2C(=O)CN1CCO (relative stereo) [Compound 7, (8R,9aS)-rel-8-(2,3-dichloro-6-hydroxyphenyl)-2-(2-hydroxyethyl)hexahydro-4H-pyrido[1,2-a]pyrazine-1,4(6H)-dione] | < 1 | > 30 |
| O=C1[C@H]2C[C@H](c3c(O)ccc(Cl)c3Cl)CCN2C(=O)CN1CCO (relative stereo) [Compound 18, (8R,9aR)-rel-8-(2,3-dichloro-6-hydroxyphenyl)-2-(2-hydroxyethyl)-hexahydropyrido[1,2-a]pyrazine-1,4-dione] | < 1 | > 30 |
| Cc1cc(O)c([C@@H]2CCN3C(=O)[C@@H](CO)NC(=O)[C@@H]3C2)c(Cl)c1Cl (relative stereo) [Compound 22, (8R,9aS)-rel-8-(2,3-dichloro-6-hydroxy-4-methylphenyl)-3-((3R)-hydroxymethyl)-hexahydro-2H-pyrido[1,2-a]pyrazine-1,4-dione] | < 1 | > 30 |
| COC[C@H]1NC(=O)[C@@H]2C[C@H](c3c(O)ccc(Cl)c3Cl)CCN2C1=O (relative stereo) [Compound 55, (8R,9aS)-rel-8-(2,3-dichloro-6-hydroxyphenyl)-3-((3R)-methoxymethyl)-hexahydro-2H-pyrido[1,2-a]pyrazine-1,4-dione] | < 1 | > 30 |
| O=C1NC(=O)N2CC[C@H](c3c(O)ccc(Cl)c3Cl)C[C@@H]12 (single isomer, unassigned; diastereoisomer 1) [Compound 9, 7-(2,3-dichloro-6-hydroxyphenyl)tetrahydro-imidazo[1,5-a]pyridine-1,3(2H,5H)-dione diastereoisomer 1] | < 1 | > 30 |
| O=C1N[C@H](CO)C(=O)N2CC[C@@H](c3c(O)ccc(Cl)c3Cl)C[C@@H]12 [Compound 2, (3R,8R,9aS)-8-(2,3-dichloro-6-hydroxyphenyl)-3-(hydroxymethyl)-hexahydro-2H-pyrido[1,2-a]pyrazine-1,4-dione] | < 1 | > 30 |
| C[C@H](O)[C@H]1NC(=O)[C@@H]2C[C@H](c3c(O)ccc(Cl)c3Cl)CCN2C1=O [Compound 3, (3R,8R,9aS)-8-(2,3-dichloro-6-hydroxyphenyl)-3-[(1S)-1-hydroxyethyl]-hexahydro-2H-pyrido[1,2-a]pyrazine-1,4-dione] | < 1 | > 30 |
| CN1C(=O)[C@@H]2C[C@H](c3c(O)ccc(Cl)c3Cl)CCN2C(=O)[C@H]1CO [Compound 6, (3R,8R,9aS)-8-(2,3-dichloro-6-hydroxyphenyl)-3-(hydroxymethyl)-2-methyl-hexahydropyrido[1,2-a]pyrazine-1,4-dione] | < 1 | > 30 |
| O=C1NCCC(=O)N2CCC(c3c(O)ccc(Cl)c3Cl)CC12 (stereo not drawn) [Compound 8, 9-(2,3-dichloro-6-hydroxyphenyl)-decahydropyrido[1,2-a][1,4]diazepine-1,5-dione] | < 1 | > 30 |
| O=C1N[C@H](CO)C(=O)N2CC[C@H](c3c(O)cc(Cl)c(Cl)c3Cl)C[C@H]12 [Compound 66, (8S,9aR)3-((3R)-hydroxymethyl)-8-(2,3,4-trichloro-6-hydroxyphenyl)-hexahydro-2H-pyrido[1,2-a]pyrazine-1,4-dione] | < 10 |  |
| C[C@H](O)[C@H]1NC(=O)[C@H]2C[C@@H](c3c(O)ccc(Cl)c3Cl)CCN2C1=O [Compound 67, (3R,8S,9aR)-8-(2,3-dichloro-6-hydroxyphenyl)-3-[(1S)-1-hydroxyethyl]-hexahydro-2H-pyrido[1,2-a]pyrazine-1,4-dione] | < 10 |  |
| O=C1N[C@H](CCO)C(=O)N2CC[C@@H](c3c(O)ccc(Cl)c3Cl)C[C@@H]12 [Compound 70, (3R,8R,9aS)-8-(2,3-dichloro-6-hydroxyphenyl)-3-(2-hydroxyethyl)-hexahydro-2H-pyrido[1,2-a]pyrazine-1,4-dione] | < 1 |  |

More lines, main results first:

| IC50 (Kv1.3 potassium channel) [µM] | Structure (SMILES) | IC50 (hERG channel) [µM] |
| --- | --- | --- |
| < 1 | O=C1[C@@H]2C[C@H](c3c(O)ccc(Cl)c3Cl)CCN2C(=O)CN1C1CC(O)C1 (relative stereo) [Compound 20, (8R,9aS)-rel-8-(2,3-dichloro-6-hydroxyphenyl)-2-(3-hydroxycyclobutyl)-hexahydropyrido[1,2-a]pyrazine-1,4-dione] | > 30 |
| < 1 | O=C1[C@@H]2C[C@H](c3c(O)ccc(Cl)c3Cl)CCN2C(=O)CN1C1CC(O)C1 (single isomer, unassigned; isomer 1) [Compound 14, 8-(2,3-dichloro-6-hydroxyphenyl)-2-[3-hydroxycyclobutyl]-hexahydropyrido[1,2-a]pyrazine-1,4-dione isomer 1] | > 30 |
| < 1 | O=C1[C@@H]2C[C@H](c3c(O)ccc(Cl)c3Cl)CCN2C(=O)CN1C1CC(O)C1 (single isomer, unassigned; isomer 2) [Compound 44, 8-(2,3-dichloro-6-hydroxyphenyl)-2-[3-hydroxycyclobutyl]-hexahydropyrido[1,2-a]pyrazine-1,4-dione isomer 2] | > 30 |
| < 1 | O=C1[C@@H]2C[C@H](c3c(O)ccc(Cl)c3Cl)CCN2C(=O)[C@H]2C[C@H](O)CN12 (single isomer, unassigned; isomer 2) [Compound 65, 7-(2,3-dichloro-6-hydroxyphenyl)-2-hydroxyhexahydro-1H-pyrido[1,2-a]pyrrolo[1,2-d]pyrazine-5,11(5aH,11aH)-dione isomer 2] | < 30 |
| < 1 | O=C1[C@@H]2C[C@H](O)CN2C(=O)[C@@H]2C[C@H](c3c(O)ccc(Cl)c3Cl)CCN12 (single isomer, unassigned; isomer 4) [Compound 35, 7-(2,3-dichloro-6-hydroxyphenyl)-2-hydroxyhexahydro-1H-pyrido[1,2-a]pyrrolo[1,2-d]pyrazine-5,11(5aH,11aH)-dione isomer 4] | < 30 |
| < 1 | O=C1[C@@H]2C[C@H](c3c(O)ccc(Cl)c3Cl)CCN2C(=O)CN1C1CNC1 [Compound 1, (8R,9aS)-2-(azetidin-3-yl)-8-(2,3-dichloro-6-hydroxyphenyl)-octahydro-1H-pyrido[1,2-a]pyrazine-1,4-dione] | > 30 |
